In patent US7217730B2, “Method for the use of pyranoindole derivatives to treat infection with Hepatitis C virus” (Wyeth, priority 2002, dated 2007):

Molecular target: T1, NS5B from the BK strain (genotype 1b) (Hepatitis C virus genotype 1b, UniProt P26663)
T1 construct: NS5B from the BK strain (genotype 1b) is expressed in E. coli as a protein in which the 21 C-terminal amino acids are replaced; made in house; host or cells: E. coli
Assay: Hepatitis C polymerase inhibition, NS5B BK strain, 33P-GTP filter assay
Format: biochemical
Conditions: Table 1A; for inhibition at 20 µM: 20 μM compound, read-out: HCV pol % inh at 20 μM; for IC50: NS5B BK strain, read-out: HCV pol BK IC50
Method in brief: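 Radiolabelled RNA synthesis was measured by filter capture and scintillation counting after EDTA stop. His-tagged, C-terminally truncated (Δ21) genotype 1b BK NS5B from E. coli, pre-exposed to compound for 15 min, copied a self-primed RNA template (~3 nM) with α-[33P]-GTP for 2 h at room temperature.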

T1 sequence (P26663 2420-2989): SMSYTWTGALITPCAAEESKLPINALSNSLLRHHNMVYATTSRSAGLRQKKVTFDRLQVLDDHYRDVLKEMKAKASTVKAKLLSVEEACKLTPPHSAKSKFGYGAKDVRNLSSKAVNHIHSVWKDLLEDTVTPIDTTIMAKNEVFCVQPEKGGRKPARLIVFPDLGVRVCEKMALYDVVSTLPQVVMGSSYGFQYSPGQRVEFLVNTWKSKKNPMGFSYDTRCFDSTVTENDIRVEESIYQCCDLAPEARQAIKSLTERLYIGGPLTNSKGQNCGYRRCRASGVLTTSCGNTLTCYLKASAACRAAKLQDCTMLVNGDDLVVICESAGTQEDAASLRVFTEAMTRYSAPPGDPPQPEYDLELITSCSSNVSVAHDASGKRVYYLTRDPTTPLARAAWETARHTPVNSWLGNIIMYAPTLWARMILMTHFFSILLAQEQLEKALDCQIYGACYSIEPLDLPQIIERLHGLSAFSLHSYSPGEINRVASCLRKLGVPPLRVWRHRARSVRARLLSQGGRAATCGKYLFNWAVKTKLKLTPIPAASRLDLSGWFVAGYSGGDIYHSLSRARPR

Structure (SMILES) | inhibition at 20 µM | IC50
CCC1(CC(=O)O)OCCc2c1[nH]c1c(F)cc(F)c(Br)c21 (stereo not shown) [Example 189, (5-bromo-1-ethyl-6,8-difluoro-1,3,4,9-tetrahydropyrano[3,4-b]indol-1-yl)acetic acid] | 74% | 4.2 µM
CCC[C@@]1(CC(=O)O)OCCc2c1[nH]c1c(Cl)ccc(Cl)c21 [Example 9, [(S)-5,8-dichloro-1-propyl-1,3,4,9-tetrahydropyrano[3,4-b]indol-1-yl]acetic acid] |  | 1.1 µM
CCCC1(CC(=O)O)OCCc2c1[nH]c1c(-c3cccc(N)c3)cccc21 (stereo not shown) [Example 97, [8-(3-aminophenyl)-1-propyl-1,3,4,9-tetrahydropyrano[3,4-b]indol-1-yl]acetic acid] | 21% | > 20 µM
CC1(CC(=O)O)OCCc2c1[nH]c1c(C(F)(F)F)cccc21 (stereo not shown) [Example 115, [1-methyl-8-(trifluoromethyl)-1,3,4,9-tetrahydropyrano[3,4-b]indol-1-yl]acetic acid] | 40% | > 20 µM
Cc1ccc(F)c2c3c([nH]c12)C(C)(CC(=O)O)OCC3 (stereo not shown) [Example 140, (5-fluoro-1,8-dimethyl-1,3,4,9-tetrahydropyrano[3,4-b]indol-1-yl)acetic acid] | 28% | > 20 µM
CCC1(CC(=O)O)OCCc2c1[nH]c1c(F)cc(F)c(C#N)c21 (stereo not shown) [Example 194, (5-cyano-1-ethyl-6,8-difluoro-1,3,4,9-tetrahydropyrano[3,4-b]indol-1-yl)acetic acid] | 50% | > 5 µM
CCCC1(CC(=O)O)OCCc2c1[nH]c1c(-c3ccc(C(F)(F)F)cc3)cccc21 (stereo not shown) [Example 94, {1-propyl-8-[4-(trifluoromethyl)phenyl]-1,3,4,9-tetrahydropyrano[3,4-b]indol-1-yl}acetic acid] | 33% | > 20 µM
CCCCC1(CC(=O)O)OCCc2c1[nH]c1cccc(Cl)c21 (stereo not shown) [Example 69, (1-butyl-5-chloro-1,3,4,9-tetrahydropyrano[3,4-b]indol-1-yl)acetic acid] |  | 5.5 µM
CCC1(CC(=O)O)OCCc2c1[nH]c1c(F)ccc(F)c21 (stereo not shown) [Example 123, (1-ethyl-5,8-difluoro-1,3,4,9-tetrahydro-pyrano[3,4-b]indol-1-yl)acetic acid] | 51% | > 20 µM
CCCCC1(CC(=O)O)OCCc2c1[nH]c1c(F)cc(C)c(C#N)c21 (stereo not shown) [Example 170, (1-butyl-5-cyano-8-fluoro-6-methyl-1,3,4,9-tetrahydropyrano[3,4-b]indol-1-yl)acetic acid] | 53% | 1 µM
CCC1(CC(=O)O)OCCc2c1[nH]c1c(F)cc(C)c(C#N)c21 (stereo not shown) [Example 220, (5-cyano-1-ethyl-8-fluoro-6-methyl-1,3,4,9-tetrahydropyrano[3,4-b]indol-1-yl)acetic acid] | 43% | > 5 µM
C/C=C/CCC1(CC(=O)O)OCCc2c1[nH]c1c(F)cc(C)c(C#N)c21 (stereo not shown) [Example 223, {5-cyano-8-fluoro-6-methyl-1-[(3E)-pent-3-enyl]-1,3,4,9-tetrahydropyrano[3,4-b]indol-1-yl}acetic acid] | 37% | > 5 µM
Cc1cc(Cl)c2[nH]c3c(c2c1C#N)CCOC3(C)CC(=O)O (stereo not shown) [Example 181, (8-chloro-5-cyano-1,6-dimethyl-1,3,4,9-tetrahydropyrano[3,4-b]indol-1-yl)acetic acid] | 14% | > 5 µM
CCCC1(CC(=O)O)OCCc2c1[nH]c1cccc(-c3ccccc3C(F)(F)F)c21 (stereo not shown) [Example 45, (1-propyl-5-[2-(trifluoromethyl)phenyl]-1,3,4,9-tetrahydropyrano[3,4-b]indol-1-yl)acetic acid] | 14% | > 20 µM
Cc1ccc(F)c2c3c([nH]c12)C(CC(=O)O)(C(C)C)OCC3 (stereo not shown) [Example 143, (5-fluoro-1-isopropyl-8-methyl-1,3,4,9-tetrahydropyrano[3,4-b]indol-1-yl)acetic acid] | 56% | 16.5 µM
CC(C)C1(CC(=O)O)OCCc2c1[nH]c1c(Br)cccc21 (stereo not shown) [Example 83, (8-bromo-1-isopropyl-1,3,4,9-tetrahydropyrano[3,4-b]indol-1-yl)acetic acid] | 41% | > 20 µM
CCC1(CC(=O)O)OCCc2c1[nH]c1c(Cl)cc(Cl)cc21 (stereo not shown) [Example 100, (6,8-dichloro-1-ethyl-1,3,4,9-tetrahydropyrano[3,4-b]indol-1-yl)acetic acid] | 54% | > 20 µM
Cc1cc(Cl)c2[nH]c3c(c2c1Br)CCOC3(CC(=O)O)c1ccc(C(=O)O)cc1 (stereo not shown) [Example 180, 4-[5-bromo-1-(carboxymethyl)-8-chloro-6-methyl-1,3,4,9-tetrahydropyrano[3,4-b]indol-1-yl]benzoic acid] | 92% | 0.81 µM

Structure (SMILES) | inhibition at 20 µM | IC50
CCCC1(CC(=O)O)OCCc2c1[nH]c1cccc(-c3ccc(F)cc3)c21 (stereo not shown) [Example 48, [5-(4-fluorophenyl)-1-propyl-1,3,4,9-tetrahydropyrano[3,4-b]indol-1-yl]acetic acid] | 18% | > 20 µM
CC(C)C1(CC(=O)O)OCCc2c1[nH]c1c(Cl)cc(Cl)cc21 (stereo not shown) [Example 102, (6,8-dichloro-1-isopropyl-1,3,4,9-tetrahydropyrano[3,4-b]indol-1-yl)acetic acid] | 51% | 21.7 µM
CC(C)C1(CC(=O)O)OCCc2c1[nH]c1cccc(Cl)c21 (stereo not shown) [Example 15, (5-chloro-1-isopropyl-1,3,4,9-tetrahydropyrano[3,4-b]indol-1-yl)acetic acid] | 7% | > 20 µM
O=C(O)CC1(c2ccoc2)OCCc2c1[nH]c1c(Cl)ccc(Cl)c21 (stereo not shown) [Example 53, [5,8-dichloro-1-(3-furyl)-1,3,4,9-tetrahydropyrano[3,4-b]indol-1-yl]acetic acid] | 62% | 13 µM
O=C(O)CC1(c2ccc([N+](=O)[O-])cc2)OCCc2c1[nH]c1cccc(Cl)c21 (stereo not shown) [Example 18, [5-chloro-1-(4-nitrophenyl)-1,3,4,9-tetrahydropyrano[3,4-b]indol-1-yl]acetic acid] | < 5% | > 20 µM
CCCC1(CC(=O)O)OCCc2c1[nH]c1c(C)ccc(C#N)c21 (stereo not shown) [Example 1, (5-cyano-8-methyl-1-propyl-1,3,4,9-tetrahydro-pyrano[3,4-b]indol-1-yl)acetic acid] |  | 0.5 µM
CCC1(CC(=O)O)OCCc2c1[nH]c1c(Cl)cc(Cl)c(Cl)c21 (stereo not shown) [Example 155, (5,6,8-trichloro-1-ethyl-1,3,4,9-tetrahydropyrano[3,4-b]indol-1-yl)acetic acid] | 84% | 0.47 µM
Cc1ccc(C)c2c3c([nH]c12)C(C)(CC(=O)O)OCC3 (stereo not shown) [Example 137, (1,5,8-trimethyl-1,3,4,9-tetrahydropyrano[3,4-b]indol-1-yl)acetic acid] | 5% | > 20 µM
COc1cc(C2(CC(=O)O)OCCc3c2[nH]c2c(Cl)ccc(Cl)c32)cc(OC)c1OC (stereo not shown) [Example 55, [5,8-dichloro-1-(3,4,5-trimethoxyphenyl)-1,3,4,9-tetrahydropyrano[3,4-b]indol-1-yl]acetic acid] | < 5% | > 20 µM
C/C=C/CCC1(CC(=O)O)OCCc2c1[nH]c1c(Cl)cccc21 (stereo not shown) [Example 77, {8-chloro-1-[(3E)-pent-3-enyl]-1,3,4,9-tetrahydropyrano[3,4-b]indol-1-yl}acetic acid] | 16% | > 20 µM
CCCC1(CC(=O)O)OCCc2c1[nH]c1cccc(Br)c21 (stereo not shown) [Example 22, (5-bromo-1-propyl-1,3,4,9-tetrahydropyrano[3,4-b]indol-1-yl)acetic acid] | 70% | 
CC1(CC(=O)O)OCCc2c1[nH]c1c(F)ccc(F)c21 (stereo not shown) [Example 122, (5,8-difluoro-1-methyl-1,3,4,9-tetrahydropyrano[3,4-b]indol-1-yl)acetic acid] | 5% | > 20 µM
C/C=C/CCC1(CC(=O)O)OCCc2c1[nH]c1c(Cl)ccc(Cl)c21 (stereo not shown) [Example 50, (5,8-dichloro-1-[(3E)-pent-3-enyl]-1,3,4,9-tetrahydropyrano[3,4-b]indol-1-yl)acetic acid] | 34% | > 20 µM
CCCC1(CC(=O)O)OCCc2c1[nH]c1c(C)cc(F)c(C#N)c21 (stereo not shown) [Example 10, (5-cyano-6-fluoro-8-methyl-1-propyl-1,3,4,9-tetrahydropyrano[3,4-b]indol-1-yl)acetic acid] |  | 0.08 µM
C/C=C/CCC1(CC(=O)O)OCCc2c1[nH]c1c(Cl)cc(C)c(Br)c21 (stereo not shown) [Example 178, {5-bromo-8-chloro-6-methyl-1-[(3E)-pent-3-enyl]-1,3,4,9-tetrahydropyrano[3,4-b]indol-1-yl}acetic acid] | < 32% | > 5 µM
O=C(O)CC1(c2ccc(C(=O)O)cc2)OCCc2c1[nH]c1c(F)ccc(F)c21 (stereo not shown) [Example 128, 4-[1-(carboxymethyl)-5,8-difluoro-1,3,4,9-tetrahydropyrano[3,4-b]indol-1-yl]benzoic acid] | 70% | > 20 µM
CCC1(CC(=O)O)OCCc2c1[nH]c1c(Cl)cccc21 (stereo not shown) [Example 73, (8-chloro-1-ethyl-1,3,4,9-tetrahydropyrano[3,4-b]indol-1-yl)acetic acid] | 22% | > 20 µM
CCCC1(CC(=O)O)OCCc2c1[nH]c1cccc(-c3ccco3)c21 (stereo not shown) [Example 40, [5-(2-furyl)-1-propyl-1,3,4,9-tetrahydropyrano[3,4-b]indol-1-yl]acetic acid] | 27% | > 20 µM
